Assay results taken from article PMC10252845, “Identification and Characterization of Novel ACE Inhibitory and Antioxidant Peptides from Sardina pilchardus Hydrolysate” (Foods, 2023).
Where a SMILES comes first, the peptide text is derived from it.

Columns and labels:
[1] = Fe2+-chelating ability (ferrozine); settings: positive control 10 μg/mL
Method: When Fe^2+ and ferrozine are combined, they form a stable magenta-colored complex. The presence of chelators in the solution can cause them to bind with the Fe^2+ ions, thereby preventing the formation of the Fe^2+-ferrozine complex. As a result, the amount of Fe^2+-ferrozine complex in the solution decreases, leading to a decrease in the absorbance of the solution at 562 nm.
The sample (1 mg/mL) group was a 1 mL sample mixed with 3.7 mL deionized water and 0.1 mL of FeCl2 (2 mmol/L) and 0.2 mL of ferrozine (5 mmol/L). The mixture was protected from light and kept at room temperature for 10 min prior to measuring the absorbance at 562 nm. Control group contained everything, except it used deionized water instead of sample, and blank group used deionized water instead of FeCl2 (2 mmol/L). […] The chelating ability was calculated according to the following equation:(7) Fe^2+-chelating ability=(1 − A1−A2/A3) × 100, where A1 is absorbance of sample group, A2 is absorbance of blank group, and A3 is absorbance of control group.

[2] = Digestive stability in artificial intestinal fluid; assay type: in vitro ADME; settings: 37 °C, 2.0 h
Description: (§1) Raw sardines (S. pilchardus) were purchased from Xiangtai Fisheries Co., Ltd. (Haikou, Hainan, China). ACE (from rabbit lung) and N-Hippuryl-His-Leu (HHL) were purchased from Sigma Chemicals Co., Ltd. (St. Louis, MO, USA). Dispase (enzyme activity 200 U/mg) was purchased from Adamas Chemicals Co., Ltd. (Shanghai, China). Alkaline protease (enzyme activity 200 U/mg) and borate buffer solution (BBS, pH8.4, containing 0.1 M H3BO3 and 0.025 M Na2B4O7) were purchased from Shanghai Yuanye Biotechnology Co., Ltd. (Shanghai, China). Trifluoroacetic acid (TFA), formic acid (FA), and acetonitrile (ACN) were obtained from Thermo Fisher Scientific Co., Ltd. (Waltham, MA, USA). The materials used for HPLC analysis were of HPLC grade, and all other reagents were of analytical grade. Artificial gastric fluid (10 g/L pepsin) and artificial intestinal fluid (10 g/L pancreatic enzyme) were purchased from Guangzhou Testing Technology Co., Ltd. (Guangzhou, China).
Peptides were quantified using HPLC and InertSustain C18 (5 μm, 4.6 × 250 mm). For FIGR, HPLC analysis conditions were as follows: the UV wavelength was constant at 228 nm, the mobile phase was 0.1% TFA/15% ACN in water, the flow rate was 1 mL/min, and the injection volume was 10 μL. For rest peptides, the mobile phase was 0.1% TFA/25% ACN in water, and the other conditions were the same as FIGR.
The peptide solutions of 0.10, 0.25, 0.50, 1.00, and 1.50 mg/mL were prepared precisely, and the peak areas of the peptides at different concentration conditions were determined. The peak area was plotted as the vertical coordinate and the concentration as the horizontal coordinate to find out the regression equation.
In total, 50 μL of the 10 mg/mL peptide solution was mixed with 450 μL of artificial gastric fluid or artificial intestinal fluid in a water bath at 37 °C for 2.0 h. Then, digestion was stopped in a water bath at 90 °C for 5 min, and the method for determining the peptide content was mentioned in Section 2.10.1. Peptide preservation rate was calculated as (3) Peptide Preservation Rate=Peptide content after treatment/Peptide content before treatment × 100,

[3] = target: T1, ACE (from rabbit lung) (Oryctolagus cuniculus, UniProt P12822); assay: In vitro ACE inhibitory activity assay (HHL substrate, hippuric acid by HPLC); assay type: biochemical; settings: synthetic peptides; read-out: IC50 for ACE inhibition (converted)
T1 construct: ACE (from rabbit lung); purchased Sigma Chemicals Co., Ltd. (St. Louis, MO, USA); host or cells: rabbit lung (tissue of origin)
T1 sequence (P12822 34-1310): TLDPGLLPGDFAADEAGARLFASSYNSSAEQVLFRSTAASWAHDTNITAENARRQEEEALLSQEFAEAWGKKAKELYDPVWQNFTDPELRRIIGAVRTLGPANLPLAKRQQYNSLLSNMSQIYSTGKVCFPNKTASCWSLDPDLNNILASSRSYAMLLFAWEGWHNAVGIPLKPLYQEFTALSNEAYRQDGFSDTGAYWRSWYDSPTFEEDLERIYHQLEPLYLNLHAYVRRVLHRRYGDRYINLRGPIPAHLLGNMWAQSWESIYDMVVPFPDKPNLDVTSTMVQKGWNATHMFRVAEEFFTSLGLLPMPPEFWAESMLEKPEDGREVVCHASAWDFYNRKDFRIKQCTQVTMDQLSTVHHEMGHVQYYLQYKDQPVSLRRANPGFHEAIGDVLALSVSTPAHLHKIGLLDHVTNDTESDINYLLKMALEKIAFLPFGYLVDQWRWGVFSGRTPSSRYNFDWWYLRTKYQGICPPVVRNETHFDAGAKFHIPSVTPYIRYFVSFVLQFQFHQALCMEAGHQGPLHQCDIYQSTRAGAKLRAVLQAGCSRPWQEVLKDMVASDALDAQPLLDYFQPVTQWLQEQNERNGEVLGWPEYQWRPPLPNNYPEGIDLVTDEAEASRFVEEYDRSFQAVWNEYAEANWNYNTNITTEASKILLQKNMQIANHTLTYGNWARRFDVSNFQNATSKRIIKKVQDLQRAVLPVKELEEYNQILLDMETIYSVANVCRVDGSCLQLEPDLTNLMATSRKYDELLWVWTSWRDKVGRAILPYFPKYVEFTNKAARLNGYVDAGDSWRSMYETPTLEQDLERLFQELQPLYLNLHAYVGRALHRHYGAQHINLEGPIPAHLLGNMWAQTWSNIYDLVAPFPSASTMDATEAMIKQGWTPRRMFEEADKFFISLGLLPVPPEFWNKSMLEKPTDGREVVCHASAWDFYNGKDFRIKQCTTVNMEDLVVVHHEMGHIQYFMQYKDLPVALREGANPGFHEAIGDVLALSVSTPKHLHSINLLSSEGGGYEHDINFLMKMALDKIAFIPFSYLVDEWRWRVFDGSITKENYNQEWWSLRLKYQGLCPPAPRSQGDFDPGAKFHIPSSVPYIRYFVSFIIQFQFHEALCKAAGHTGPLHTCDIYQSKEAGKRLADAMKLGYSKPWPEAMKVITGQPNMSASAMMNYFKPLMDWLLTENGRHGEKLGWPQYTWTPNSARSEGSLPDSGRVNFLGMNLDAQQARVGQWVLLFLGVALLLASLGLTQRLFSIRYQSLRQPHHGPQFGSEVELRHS
Description: as §1
The ACE inhibitory activity assay was determined according to a previous report with some modifications. HHL was dissolved in BBS to make a solution with a concentration of 5 mmol/L. The ACE was dissolved in BBS at a concentration of 0.06 U/mL. The reaction system was as follows: 20 μL of 0.06 U/mL ACE solution and 40 μL of sample solution or control (BBS) was added. After 5 min in a water bath at 37 °C, 50 μL of 5 mM HHL was added and incubated at 37 °C for 1 h. At the end of the incubation, 50 μL of […] was added to terminate the reaction. 500 μL water was added to the reaction system. Hippuric acid (HA) was quantified after being released from the system using HPLC and InertSustain C18 (5 μm, 4.6 × 250 mm). HPLC analysis conditions were as follows: the UV wavelength was constant at 228 nm, the mobile phase was 0.1% TFA/25% ACN in water, the flow rate was 1 mL/min, and the injection volume was 10 μL. The ACE inhibition activity was calculated by the following equation:(1) ACE Inhibition Activity=∆A−∆B/∆A × 100, where ΔA represented the peak area of HA in the control group; ΔB represented the peak area of the sample group.
All experiments were performed in triplicate (except for the molecular docking results), and data were reported as mean ± SD (n ≥ 3). An ANOVA test using SPSS 26.0 (SPSS Corporation, Chicago, IL, USA) was used to analyze the experimental data. The IC50 value was defined as the half concentration of the peptide required to inhibit the ACE activity, and the IC50 of the ACE inhibitory peptides was determined by calculating the ACE inhibition rate at various sample concentrations using the SPSS 26.0 probit regression model.

[4] = ABTS+ scavenging activity; settings: positive control 10 μg/mL
Method: The 2,2′-Azinobis(3-ethylbenzothiazoline-6-sulfonic acid Ammonium Salt (ABTS) is commonly utilized as a stable free radical source in experiments. It is oxidized by potassium persulfate to produce an ABTS+ radical cation, which has a blue-green hue and absorbs light at 734 nm. When antioxidants are added, the free radical cations are reduced to the colorless ABTS form.
The ABTS+ was generated by mixing 7 mM ABTS and 4.09 mM potassium persulfate in the same volume, and the mixture was kept in the dark at room temperature for 12 h before use. The sample (1 mg/mL) group added sample 0.5 mL with 1 mL of ABTS+ solution. Control group was the same as the sample group, except that the sample was replaced with deionized water. Blank group was added deionized water 0.5 mL with 1 mL of ABTS+ solution. After incubation at room temperature for 6 min, the absorbance was tested at 734 nm. The positive control was 10 μg/mL glutathione (GSH). The sample’s concentration of 1 mg/mL falls within the linear range of the sample’s ABTS scavenging ability. (5) ABTS+Scavenging Activity=(1 − A1−A2/A3) × 100, where A1 is absorbance of sample group, A2 is absorbance of control group, and A3 is absorbance of blank group.

[5] = DPPH radical scavenging activity; settings: positive control 10 μg/mL
Method: The 2,2-diphenyl-1-picrylhydrazyl (DPPH) is a stable free radical with a distinct purple color and absorbs light at 517 nm. Antioxidants added to the DPPH solution lead to a reduction in the DPPH radical to a non-radical form, resulting in a decrease in the solution’s absorbance. […] This principle of DPPH radical scavenging is commonly utilized for evaluating the antioxidant capacity of various substances, such as peptides.
Sample (1 mg/mL) group was aliquots of samples being mixed 1:1 (v/v) with 0.1 mmol/L DPPH (in ethanol absolute); control group was aliquots of samples being mixed 1:1 (v/v) with ethanol absolute; and blank group was aliquots of ethanol absolute being mixed 1:1 (v/v) with 0.1 mmol/L DPPH (in ethanol absolute). The mixture was shaken and kept for 40 min at room temperature and protected from light. The radical scavenging activity of DPPH radical was determined by measuring the absorbance at 517 nm. […] In this study, the sample concentration was 1 mg/mL, which was determined to be within the linear range of the concentration of the sample and its DPPH scavenging ability. The ability of the sample to scavenge DPPH radical was calculated according to the following equation:(4) DPPH Radical Scavenging Activity=(1 − Ai−Aj/A0) × 100, where Ai is absorbance of sample group, Aj is absorbance of control group, and A0 is absorbance of blank group.

[6] = Hydroxyl radical scavenging activity (salicylic acid); settings: positive control 10 μg/mL
Method: The hydroxyl radical (·OH) is a free radical that comprises an oxygen atom and a hydrogen atom (·OH). The principle behind measuring hydroxyl radical scavenging activity involves the reaction between the hydroxyl radical and salicylic acid, which produces 2, 3-dihydroxybenzoic acid that can be quantified by measuring the absorbance at 510 nm.
The 1 mL of sample (1 mg/mL) was mixed with 1 mL of 4.5 mmol/L of ferrous sulfate and 1 mL of 30% H2O2 (v/v). The reaction mixture was standing for 10 min after vortexing. Then, 1 mL of 4.5 mmol/L salicylic acid was added and subsequently vortexed. After a water bath at 37 °C for 30 min, the absorbance of the mixture was measured at 510 nm (As). For the control, deionized water was added instead of salicylic acid (Ac). Vitamin C (Vc) was used as a positive control at 10 μg/mL. Hydroxyl radical scavenging activity was calculated as follows:(6) Hydroxyl Radical Scavenging Activity=(1 − Ac−As/Ac) × 100,

[7] = tested on: ACE; settings: cited from earlier work

Compound | Retention rate after intestinal digestion [2] | IC50 [3] | other results
O=C([O-])CN(CCN(CC(=O)O)CC(=O)O)CC(=O)[O-].[Na+].[Na+] [EDTA-2Na] |  |  | Fe2+ chelating capacity [1]: 28.81% ± 1.13
CC[C@H](C)[C@H](NC(=O)[C@@H](N)Cc1ccccc1)C(=O)NCC(=O)N[C@@H](CCCNC(=N)N)C(=O)O [FIGR] (H-FIGR-OH; N-terminus and C-terminus assumed) | 50.78% ± 0.77 | 1220 µM | 
CC[C@H](C)[C@H](NC(=O)[C@@H](N)Cc1ccccc1)C(=O)N[C@@H](CC(C)C)C(=O)N[C@@H](CCCNC(=N)N)C(=O)O [FILR] (H-FILR-OH; N-terminus and C-terminus assumed) | 86.23% ± 1.60 |  | 
N[C@@H](CCC(=O)N[C@@H](CS)C(=O)NCC(=O)O)C(=O)O [GSH, Glutathione] |  |  | ABTS scavenging capacity [4]: 9.01% ± 0.69; DPPH scavenging capacity [5]: 33.25% ± 1.44
O=C1O[C@H]([C@@H](O)CO)C(O)=C1O [Vc, Vitamin C] |  |  | Hydroxyl radical scavenging ability [6]: 9.39% ± 0.54
AEYLCEAC |  |  | IC50 [7]: 4290 µM
RWDISQPY |  |  | ACE inhibition pattern [7]: Competitive

More lines, main results first:

Retention rate after intestinal digestion [2] | IC50 [3] | Compound | other results
25.62% ± 2.01 |  | CC(C)C[C@H](NC(=O)[C@H](CCCNC(=N)N)NC(=O)[C@H](CCC(N)=O)NC(=O)[C@@H](N)Cc1ccccc1)C(=O)O [FQRL] (H-FQRL-OH; N-terminus and C-terminus assumed) | 
10.83% ± 0.44 | 1310 µM | CC(C)C[C@H](NC(=O)[C@H](C)NC(=O)[C@H](CCCNC(=N)N)NC(=O)[C@@H](N)Cc1ccccc1)C(=O)O [FRAL] (H-FRAL-OH; N-terminus and C-terminus assumed) | 
73.36% ± 0.86 | 1500 µM | CC(C)C[C@H](NC(=O)[C@H](Cc1ccccc1)NC(=O)[C@@H](N)CCCCN)C(=O)O [KFL] (H-Lys-Phe-Leu-OH; N-terminus and C-terminus assumed) | 
88.92% ± 2.60 | 2190 µM | CC(C)C[C@H](NC(=O)[C@@H](N)CCCCN)C(=O)N[C@@H](Cc1ccccc1)C(=O)O [KLF] (H-Lys-Leu-Phe-OH; N-terminus and C-terminus assumed) | 
